Measurements published in patent US10501479B2, “Benzenesulfonyl-asymmetric ureas and medical uses thereof” (HELSINN HEALTHCARE SA, priority 2016, dated 2019).
Read-outs that look alike come from different tables or passages of the source.

Key:
[1] = molecular target: T1, GHSR-1a (HEK293/GHSR1a cell line) (Homo sapiens, UniProt Q92847); assay: Ghrelin agonist potency (EC50) with calcium FLIPR assay; format: cell-based
T1 construct: expressed in transfected cells; host or cells: HEK293/GHSR1a cell line
T1 sequence (Q92847 whole entry): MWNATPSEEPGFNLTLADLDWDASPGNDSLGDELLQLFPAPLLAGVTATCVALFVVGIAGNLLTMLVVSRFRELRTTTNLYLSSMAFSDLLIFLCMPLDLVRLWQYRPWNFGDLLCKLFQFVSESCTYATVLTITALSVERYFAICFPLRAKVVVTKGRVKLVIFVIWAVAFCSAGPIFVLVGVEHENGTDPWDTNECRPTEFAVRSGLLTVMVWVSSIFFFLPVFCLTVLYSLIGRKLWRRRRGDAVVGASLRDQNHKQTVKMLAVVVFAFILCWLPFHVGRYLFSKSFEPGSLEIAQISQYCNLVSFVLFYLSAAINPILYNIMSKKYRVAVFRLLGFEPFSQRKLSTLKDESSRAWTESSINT
Method in brief: (§1)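 Fluorescence read-out of intracellular calcium over 2 min. Agonist EC50 came from compound added alone at t=20 sec. Antagonist IC50 came from the reduction of the response to 10 nM ghrelin co-added with compound at t=20 sec. Both were fitted from dose-response data.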

[2] = Metabolic stability in human liver microsomes; format: in vitro ADME
Method in brief: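 Microsomes + compound, 100 mM K phosphate pH 7.4, 37 °C; 5 min preincubation, NADPH regenerating system added to start. Aliquots at 0/10/30/90 min into cold quench, spun 5000×g, supernatant diluted, LC-MS/MS.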

[3] = molecular target: T1, GHSR-1a (HEK293/GHSR1a cell line); assay: Ghrelin antagonist potency (IC50) with calcium FLIPR assay, ghrelin 10 nM; format: cell-based
Method in brief: as §1

[4] = Metabolic stability in mouse liver microsomes; format: in vitro ADME
Procedure: Metabolic Stability Study
The metabolic stability of compounds in human, dog, rat and mouse liver microsomes was performed according the experimental conditions reported below:
• a) Prepare the following 5 stock solutions: • 1. Test compound stock solutions: dilute 10 mM solution of dextromethorphan (Dtr) in DMSO, 10 mM solution of diphenhydramine (DPA) in DMSO, 10 mM solution of omeprazole (Ome) in DMSO, 10 mM solution of verapamil (Ver) in DMSO, and 10 mM of an inverse agonist compound in DMSO to 0.25 mM solution each with acetonitrile/water (70/30). • 2. Buffer: 100 mM potassium phosphate Buffer (PBS) at pH 7.4 • 3. Liver microsomes (20 mg/ml): Thaw in 37° C. water bath quickly • 4. 2000 μL: of NADPH regenerating system (1.3 mM). Place this system on ice before use:
• 5. […] The test compound concentration in the wells, measured by LC-MS/MS, represents the concentration at time=0. • f) To determine the test compound concentration when t≠0, pre-incubate the NADPH regenerating system and the incubation plate containing the remaining 320 μL of incubation mixture (microsomes protein and test compound) for 5 minutes at 37° C. • g) Start the incubation reaction by adding 80 μL NADPH regenerating system to each well containing the remaining 320 μL incubation mixture. • h) After 10 min., 30 min., and 90 min. of incubation at 37° C., transfer 100 μL of the incubation mixture (microsomes protein, test compound, and NADPH) into the wells of a stop plate pre-filled with 300 μL of the cold quench solution. Shake well. • i) Centrifuge the stop plate at 5000×g for 10 minutes. Collect and dilute the supernatant 3 times with distilled water. Sample and analyze the test compound concentration for all the wells by LC-MS/MS. Animal PK Studies via i.v. (intravenous), p.o. (orally) and s.c. (subcutaneous) administrations

[5] = molecular target: T2, recombinant human ghrelin receptor (HEK293/GRLN) (Homo sapiens, UniProt Q92847); assay: Ghrelin inverse agonist potency (EC50) with IP-1 (IP-One HTRF) assay; format: cell-based; conditions: IP-1 assay
T2 construct: expressed in transfected cells
T2 sequence (Q92847 whole entry): as above
Method in brief: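 IP-1 accumulation was measured by HTRF (IP1-d2/Tb-cryptate, 620/665 nm read after 1 hour at room temperature) following 1 hour of compound treatment at 37° C. Cells were HEK293 stably expressing human ghrelin receptor, plated a day earlier on Matrigel. Inverse agonist potency was reported as EC50.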

[6] = HEK293/GHSR1a, read-out: Activity EC50/EMax: EC50 (ghrelin agonist potency)
[7] = HEK293/GHSR1a, ghrelin 10 nM, read-out: Activity IC50 (ghrelin antagonist potency)
[8] = HEK293/GRLN, read-out: Activity EC50 (ghrelin inverse agonist potency)
[9] = ghrelin agonist potency, read-out: Activity EC50/EMax
[10] = ghrelin antagonist potency, read-out: Activity IC50
[11] = ghrelin inverse agonist potency, read-out: Activity EC50

| Structure (SMILES) | EC50 [1, 6] [nM] | Metabolic Stability Study H = human [2] | IC50 [3, 7] [nM] | Metabolic Stability Study M = mouse [4] | EC50 [5, 8] [nM] | EC50 [1, 9] [nM] | IC50 [3, 10] [nM] | EC50 [5, 11] [nM] |
| --- | --- | --- | --- | --- | --- | --- | --- | --- |
| CCc1ccc(Cl)c(C(C)NC(=O)Nc2ccc(S(=O)(=O)Cc3ccc4c(c3)CN(C)C4)cc2)c1 (stereo not drawn) [H1286, 1-(1-(2-chloro-5-ethylphenyl)ethyl)-3-(4-(((2-methylisoindolin-5-yl)methyl)sulfonyl)phenyl)urea] | > 30000 | 251.8 µL/min/mg | 39.5 | 162.4 µL/min/mg | 24.3 | – | – | – |
| C[C@H](NC(=O)Nc1ccc(S(=O)(=O)Cc2ccc3c(c2)CCNCC3)cc1)c1ccccc1 [H1306, (S)-1-(1-phenylethyl)-3-(4-(((2,3,4,5-tetrahydro-1H-benzo[d]azepin-7-yl)methyl)sulfonyl)phenyl)urea] | > 30000 | 31.2 µL/min/mg | 62 | 19.6 µL/min/mg | 74.6 | – | – | – |
| CC(NC(=O)Nc1ccc(S(=O)(=O)Cc2ccc3c(c2)CNC3)cc1)c1ccccc1F (stereo not drawn) [H1272, 1-(1-(2-fluorophenyl)ethyl)-3-(4-((isoindolin-5-ylmethyl)sulfonyl)phenyl)urea] | > 30000 | 18.4 µL/min/mg | 23.5 | 18.6 µL/min/mg | 5.3 | – | – | – |
| C[C@@H](NC(=O)Nc1ccc(S(=O)(=O)Cc2ccc3c(c2)CCN(C)C3)cc1)c1cccc(Cl)c1Cl [H1343, (R)-1-(1-(2,3-dichlorophenyl)ethyl)-3-(4-(((2-methyl-1,2,3,4-tetrahydroisoquinolin-6-yl)methyl)sulfonyl)phenyl)urea] | > 30000 | 71.9 µL/min/mg | 5.2 | 252.4 µL/min/mg | 2.1 | – | – | – |
| COc1cc(S(=O)(=O)Cc2ccc3c(c2)CNC3)ccc1NC(=O)N(O)C(C)c1ccccc1 (stereo not drawn) [H1517, 1-hydroxy-3-(4-((isoindolin-5-ylmethyl)sulfonyl)-2-methoxyphenyl)-1-(1-phenylethyl)urea] | – | 25.6 µL/min/mg | – | 56.6 µL/min/mg | – | > 30000 | 10.5 | 6.7 |
| C[C@@H](NC(=O)Nc1ccc(S(=O)(=O)Cc2ccc3c(c2)C(F)CN(C)C3)cc1)c1cccc(Cl)c1Cl (stereo partly drawn) [H1538, 1-((R)-1-(2,3-dichlorophenyl)ethyl)-3-(4-(((4-fluoro-2-methyl-1,2,3,4-tetrahydroisoquinolin-6-yl)methyl)sulfonyl)phenyl)urea] | – | 237.3 µL/min/mg | – | 354 µL/min/mg | – | > 30000 | 172 | 8.6 |
| CC(NC(=O)Nc1ccc(S(=O)(=O)Nc2ccc3c(c2)CCN(C)C3)cc1)c1ccccc1Cl (stereo not drawn) [H1334, 4-(3-(1-(2-chlorophenyl)ethyl)ureido)-N-(2-methyl-1,2,3,4-tetrahydroisoquinolin-6-yl)benzenesulfonamide] | > 30000 | 109.8 µL/min/mg | 9.18 | 97.9 µL/min/mg | 8.2 | – | – | – |
| CC(NC(=O)Nc1ccc(S(=O)(=O)Cc2cc3c(s2)CN(C)C3)cc1)c1ccccc1 (stereo not drawn) [H1321, 1-(4-(((5-methyl-5,6-dihydro-4H-thieno[2,3-c]pyrrol-2-yl)methyl)sulfonyl)phenyl)-3-(1-phenylethyl)urea] | > 30000 | 85.3 µL/min/mg | 47.5 | 81.9 µL/min/mg | 23.2 | – | – | – |
| CC(NC(=O)Nc1ccc(S(=O)(=O)Cc2ccc3c(c2)CN(C)C3)cc1F)c1ccccc1 (stereo not drawn) [H1317, 1-(2-fluoro-4-(((2-methylisoindolin-5-yl)methyl)sulfonyl)phenyl)-3-(1-phenylethyl)urea] | > 30000 | 96.7 µL/min/mg | 48.4 | 102.8 µL/min/mg | 18.2 | – | – | – |
| COc1cc(S(=O)(=O)Cc2ccc3c(c2)CNC3)ccc1NC(=O)NC(C)c1ccccc1OC (stereo not drawn) [H1393, 1-(4-((isoindolin-5-ylmethyl)sulfonyl)-2-methoxyphenyl)-3-(1-(2-methoxyphenyl)ethyl)urea] | > 30000 | 55.5 µL/min/mg | 9.2 | 55.1 µL/min/mg | 3.73 | – | – | – |
| CC(NC(=O)Nc1ccc(S(=O)(=O)Cc2cc3c(cc2F)CNCC3)cc1)c1cccc(Cl)c1Cl (stereo not drawn) [H1385, 1-(1-(2,3-dichlorophenyl)ethyl)-3-(4-(((7-fluoro-1,2,3,4-tetrahydroisoquinolin-6-yl)methyl)sulfonyl)phenyl)urea] | > 30000 | H = <10 M = <10 μL/min/mg | 3.98 | H = <10 M = <10 μL/min/mg | 6.5 | – | – | – |
| CC(NC(=O)Nc1ccc(S(=O)(=O)Cc2ccc3c(c2)CNC3)cc1C1CC1)c1ccccc1 (stereo not drawn) [H1484, 1-(2-cyclopropyl-4-((isoindolin-5-ylmethyl)sulfonyl)phenyl)-3-(1-phenylethyl)urea] | – | 116.7 µL/min/mg | – | 149.3 µL/min/mg | – | > 30000 | 21.7 | 7.1 |
| COc1cc(NC(=O)NC(C)c2ccccc2)ccc1S(=O)(=O)Cc1ccc2c(c1)CN(C)C2 (stereo not drawn) [H1462, 1-(3-methoxy-4-(((2-methylisoindolin-5-yl)methyl)sulfonyl)phenyl)-3-(1-phenylethyl)urea] | – | 76.1 µL/min/mg | – | 15.8 µL/min/mg | – | > 30000 | 13.8 | 6.24 |
| CC(NC(=O)Nc1ccc(S(=O)(=O)Cc2ccc3c(c2)CNC3)cc1-c1cc[nH]n1)c1ccccc1 (stereo not drawn) [H1519, 1-(4-((isoindolin-5-ylmethyl)sulfonyl)-2-(1H-pyrazol-3-yl)phenyl)-3-(1-phenylethyl)urea] | – | 47.3 µL/min/mg | – | 169.8 µL/min/mg | – | > 30000 | 12.1 | 4.6 |
| C[C@@H](NC(=O)Nc1ccc(S(=O)(=O)Cc2cc(F)c3c(c2)CNC3)cc1)c1ccccc1.Cl [H1394, (R)-1-(4-(((7-fluoroisoindolin-5-yl)methyl)sulfonyl)phenyl)-3-(1-phenylethyl)urea] | > 30000 | 67.4 µL/min/mg | 51.9 | 182.5 µL/min/mg | 7.8 | – | – | – |
| C[C@H](NC(=O)Nc1ccc(S(=O)(=O)Cc2ccc3c(c2)CN(C)C3)cc1)c1ccccc1 [H1299, (S)-1-(4-(((2-methylisoindolin-5-yl)methyl)sulfonyl)phenyl)-3-(1-phenylethyl)urea] | > 30000 | 71.5 µL/min/mg | 192 | 50.9 µL/min/mg | 102 | – | – | – |
| CC(NC(=O)Nc1ccc(S(=O)(=O)Cc2ccc3c(c2)CCN(C)C3)cc1)c1ccccc1Cl (stereo not drawn) [H1344, 1-(1-(2-chlorophenyl)ethyl)-3-(4-(((2-methyl-1,2,3,4-tetrahydroisoquinolin-6-yl)methyl)sulfonyl)phenyl)urea] | > 30000 | 53.5 µL/min/mg | 4.4 | 115.7 µL/min/mg | 4.1 | – | – | – |
| COc1ccccc1C(C)NC(=O)Nc1ccc(S(=O)(=O)Cc2ccc3c(c2)CNC3)cc1F.Cl (stereo not drawn) [H1390, 1-(2-fluoro-4-((isoindolin-5-ylmethyl)sulfonyl)phenyl)-3-(1-(2-methoxyphenyl)ethyl)urea] | > 30000 | 34.6 µL/min/mg | 36.4 | 55.9 µL/min/mg | 10.7 | – | – | – |
